Assay results from patent US8795739B2, “Iron fortified food product and additive” (Magqu Co. Ltd., priority 2012, dated 2014).

Tested on: Caco-2 cells
Experiment: Iron bioavailability test in the in vitro digestion/Caco-2 cell culture system (ferritin ELISA, Bradford total protein)
Assay type: in vitro ADME, Human
Procedure: The assay followed the guidance of Department of Health, Executive Yuan, R.O.C. (TAIWAN) and was conducted to analyze the cytotoxicity and the iron bioavailability of Fe3O4 microspheres in the in vitro digestion/Caco-2 cell culture system. The iron bioavailability from the test article could be evaluated by an in vitro system including enzymatic digestion, iron uptake and ferritin determination via an Enzyme-linked immunosorbent assay (ELISA).
• Cell line: Human colon adenocarcinoma, clone of Caco-2. BCRC 80182. • Culture medium: Minimum Essential Medium (MEM) without any additional iron, iron conc.<8 μg/L. • Culture condition: 37±1° C. with 5% C02 incubator. • EBSS/MES buffer: Earle's balanced salt solution (EBSS) ? 10 mM MES (2-[4-morpholino]-ethanesulfonic acid) buffer, pH 6.0. • MEM enrichment medium: hydrocortisone (4 mg/L) ? 10 mM PIPES (piperazine-N,N′-bis-[2-ethanesulfonic acid]) ? 1% antibiotic-antimycotic solution ? insulin (5 mg/L) ? sodium selenite (5 μg/L) ? triiodothyronine ([…]) and epidermal growth factor (2 μg//L). • Iron removal solution: 1 mM bathophenanthroline disulfonic acid (BPDS) and 5 mM sodium hydrosulfite were dissolved in the rinse solution. • Rinse solution: 140 mM NaCl ? 5 mM KCI ? 10 mM PIPES, pH 7.0. Grouping:
The test article were two sizes of Fe3O4 microspheres with an average diameter of 800 nanometer (nm) and 3000 nm, respectively. Both microspheres were placed in a buffer with a pH value ranges from 5-7. Preferably, the buffer was water or Phosphate Buffered Saline (PBS). In this experiment, the buffer was Phosphate Buffered Saline.
• The digestion of the test article: 0.5 mL of test article was dissolved in 1 mL of 1 N HCl solution, and incubated at 37±1° C. for 16 hours. The final iron concentration was 100 μM. Phosphate buffered saline was used as the negative control and treated in the same condition without the test article. • Iron bioavailability test: • i. […] Measured the absorbance at 595 nm with an ELISA reader. • ii. […] Determined by, the human ferritin enzyme immunoassay test kit. • ii. […]

Tested Ferritin (Caco-2 cell lysate, 24 hours treatment, 50 μM FeSO4 (positive control)): 61.1 ± 1.6 ng/mL
Calibrated Ferritin (ferritin calibrated by total protein, Caco-2, 24 hours, 50 μM FeSO4 (positive control)): 255.9±15.4 ng/mg protein
Iron availability (relative to positive control, Caco-2, 24 hours, 50 μM FeSO4): 100%
Structure (SMILES): O=S(=O)([O-])[O-].[Fe+2] [FeSO4]
